# Source: patent US8541447B2 (priority 2003, dated 2013)
# Read-outs that look alike come from different tables or passages of the source.
# Biological target: muscarinic M3 receptor (Homo sapiens (Human), UniProt P20309)
# Assay type: binding
Compound,ability to inhibit [3H]QNB binding at muscarinic sites,ability to inhibit [3H]QNB binding at muscarinic sites (human clonal line TE671/RD)
"O=C(Nc1ccccc1)OC1C2CCN(CC2)C1Cc1cccnc1 (centres unmarked) [Compound 2, 2-((3-pyridinyl)methyl)-1-azabicyclo[2.2.2]oct-3-yl N-phenylcarbamate]",None of the compounds was able to inhibit [^3H]QNB binding,–
"O=C(NC1C2CCN(CC2)C1Cc1cccnc1)c1cc2ccccc2o1 (centres unmarked) [Compound 9, N-(2-((3-pyridinyl)methyl)-1-azabicyclo[2.2.2]oct-3-yl)benzofuran-2-carboxamide]",–,None of the compounds was able to inhibit [^3H]QNB binding
O=C(NC1C2CCN(CC2)C1Cc1cccnc1)c1ccc(Sc2ccccc2)cc1 (centres unmarked) [Compound 11],–,None of the compounds was able to inhibit [^3H]QNB binding
"O=C(Nc1ccc(Br)cc1)OC1C2CCN(CC2)C1Cc1cccnc1 (centres unmarked) [Compound 1, 2-((3-pyridinyl)methyl)-1-azabicyclo[2.2.2]oct-3-yl N-(4-bromophenyl)carbamate]",None of the compounds was able to inhibit [^3H]QNB binding,–
"COc1ccc(NC(=O)OC2C3CCN(CC3)C2Cc2cccnc2)cc1 (centres unmarked) [Compound 4, 2-((3-pyridinyl)methyl)-1-azabicyclo[2.2.2]oct-3-yl N-(4-methoxyphenyl)carbamate]",None of the compounds was able to inhibit [^3H]QNB binding,–
